# In article PMC6844382, “Design, synthesis and evaluation of quinolinone derivatives containing dithiocarbamate moiety as multifunctional AChE inhibitors for the treatment of Alzheimer’s disease” (Journal of Enzyme Inhibition and Medicinal Chemistry, 2019):
# “Also recorded” adds a separate entry of the source.
# Key:
# [1] = biological target: T1, eeAChE (Electrophorus electricus, UniProt O42275); assay: In vitro inhibition of eeAChE (Ellman method); type: biochemical, electric eel
# T1 construct: eeAChE (from electric eel); purchased Sigma-Aldrich (St. Louis, MO, USA); host or cells: electric eel
# T1 sequence (O42275 24-633): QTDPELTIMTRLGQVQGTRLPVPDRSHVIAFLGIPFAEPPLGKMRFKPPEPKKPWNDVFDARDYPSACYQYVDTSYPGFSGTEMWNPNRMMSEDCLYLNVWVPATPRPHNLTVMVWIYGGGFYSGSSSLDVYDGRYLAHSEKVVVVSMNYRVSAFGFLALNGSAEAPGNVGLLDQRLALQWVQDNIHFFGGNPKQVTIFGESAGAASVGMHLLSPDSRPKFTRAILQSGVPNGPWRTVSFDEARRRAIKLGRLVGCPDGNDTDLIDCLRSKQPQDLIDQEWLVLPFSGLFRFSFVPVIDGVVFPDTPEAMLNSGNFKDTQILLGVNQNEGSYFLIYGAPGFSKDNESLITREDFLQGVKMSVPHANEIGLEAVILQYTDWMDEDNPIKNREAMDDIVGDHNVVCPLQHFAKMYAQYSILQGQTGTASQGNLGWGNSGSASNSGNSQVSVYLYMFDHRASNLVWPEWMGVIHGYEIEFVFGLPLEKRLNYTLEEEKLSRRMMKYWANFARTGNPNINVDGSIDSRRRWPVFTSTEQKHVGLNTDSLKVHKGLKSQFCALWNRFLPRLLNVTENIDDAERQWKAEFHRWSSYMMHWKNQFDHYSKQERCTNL
# Description: (§1) The in vitro inhibitory activities of test compounds against AChE and BuChE were determined by the spectrophotometric method of Ellman[25]. […] For each assay, 160 μL of 1.5 mM DTNB, 50 μL of AChE (0.22 U/mL for eeAChE; 0.05 U/mL for hAChE) or eqBuChE (0.12 U/mL) were incubated with 10 μL of different concentrations of test compounds at 37 °C for 6 min.
# [2] = biological target: T2, eqBuChE (Equus caballus, UniProt P81908); assay: In vitro inhibition of eqBuChE (Ellman method); type: biochemical, equine; settings: read-out: eqBuChE Inhibition (%)
# T2 construct: eqBuChE (from equine serum); purchased Sigma-Aldrich (St. Louis, MO, USA); host or cells: equine serum
# T2 sequence (P81908 whole entry): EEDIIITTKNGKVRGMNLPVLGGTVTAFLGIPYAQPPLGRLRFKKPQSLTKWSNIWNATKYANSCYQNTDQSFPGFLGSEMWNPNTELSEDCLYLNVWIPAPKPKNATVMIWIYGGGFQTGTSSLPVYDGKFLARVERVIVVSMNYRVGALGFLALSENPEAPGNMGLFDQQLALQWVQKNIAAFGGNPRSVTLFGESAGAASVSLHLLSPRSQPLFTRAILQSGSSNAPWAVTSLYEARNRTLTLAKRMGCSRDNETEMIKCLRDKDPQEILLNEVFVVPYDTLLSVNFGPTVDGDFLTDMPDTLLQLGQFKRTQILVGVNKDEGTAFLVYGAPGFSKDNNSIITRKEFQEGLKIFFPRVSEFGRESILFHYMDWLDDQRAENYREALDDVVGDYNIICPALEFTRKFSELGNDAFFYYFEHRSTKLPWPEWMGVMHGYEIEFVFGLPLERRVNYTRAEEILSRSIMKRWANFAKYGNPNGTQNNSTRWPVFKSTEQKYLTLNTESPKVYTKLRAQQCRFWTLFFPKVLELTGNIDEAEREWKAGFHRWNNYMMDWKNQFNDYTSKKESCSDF
# Description: as §1
# [3] = biological target: T3, AChE-induced Aβ1-42 aggregation (Electrophorus electricus, UniProt O42275); assay: Inhibition of AChE-induced Aβ1-42 aggregation (ThT assay); type: biochemical; settings: inhibitor 100 μM; thioflavin-T fluorescence
# T3 construct: eeAChE (from electric eel); purchased eeAChE: Sigma-Aldrich (St. Louis, MO, USA); Aβ1-42: Royobiotech Co., Ltd (Shanghai, China)
# T3 sequence (O42275 24-633): as the sequence (O42275 24-633) above
# Description: 1, 1, 1, 3, 3, 3-hexafluoro-2-propanol (HFIP) and Thioflavin T (ThT) were obtained from TCI (Shanghai) Development. β-Amyloid1-42 (Aβ1-42), supplied as trifluoroacetate salt, and eeAChE were purchased from Royobiotech Co., Ltd (Shanghai, China) and Sigma-Aldrich (St. Louis, MO, USA), respectively. For co-incubation experiments, aliquots of Aβ1-42 peptide and AChE in presence or absence of the test compounds were incubated for 48 h at 37 °C. […] The percent inhibition of the AChE-induced Aβ aggregation due to the presence of inhibitor was calculated by the following formula: 100 – (IFi/IFo*100), where IFi and IFo are the fluorescence intensities obtained for Aβ1-42 aggregation in the presence and in the absence of inhibitor, respectively. Each assay was run in triplicate and each reaction was repeated at least three independent times.
# [4] = biological target: T4, self-induced Aβ1-42 aggregation (Homo sapiens, UniProt P05067); assay: Inhibition of self-induced Aβ1-42 aggregation (ThT assay); type: biochemical; settings: read-out: Inhibition of Aβ1–42 aggregation (%) Self-induced
# T4 construct: Aβ1-42 was obtained from Royobiotech Co., Ltd (Shanghai, China); purchased Royobiotech Co., Ltd (Shanghai, China)
# T4 sequence (P05067 672-713): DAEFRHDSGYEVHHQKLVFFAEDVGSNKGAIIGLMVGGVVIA
# Description: The inhibitory activities of compounds 4c-f and 9a-b on self-induced Aβ1-42 aggregation were also measured by the ThT assay. HFIP and ThT were purchased from TCI (Shanghai) Development. Aβ1-42 was obtained from Royobiotech Co., Ltd (Shanghai, China). The monomeric Aβ1-42 samples were prepared by HFIP and diluted with a 50 mM phosphate buffer (pH 7.4) to give a 25 μM solution. The test compound was dissolved in DMSO (250 μM) for storage and needed not to be diluted prior to use. […]. Then, 200 μL of 5 μM ThT in 50 mM glycine-NaOH buffer (pH 8.0) was added, and the percent inhibition was calculated by the method same as that of AChE-induced Aβ1–42 experiment.
# [5] = tested on: human neuroblastoma SH-SY5Y cells; assay: Cytotoxicity on SH-SY5Y cells (MTT assay); type: cell-based; settings: 12.5–100 µM, 24 h
# Description: The cytotoxicity of test compound on the human neuroblastoma SH-SY5Y cells was evaluated by MTT assay. The SH-SY5Y cells were grown in a 1:1 mixture of Eagle's minimum essential medium (EMEM) and ham's F-12 medium supplemented with 10% foetal bovine serum (FBS), 100 U/mL penicillin and […] streptomycin in 5% CO2 at 37 °C. For assay, cells were seeded into 96-well plates at a density of 10000 cells/well and treated with compound 4c for 24 h. After this treatment, 20 μL of MTT at 37 °C was added. Four hours later, the medium was removed, and 200 μL of DMSO was added to dissolve the formazan crystal formed. The absorbance was measured using a microculture plate reader with a test wavelength of 570 nm and a reference wavelength of 630 nm. Results are expressed as the mean ± SD of three independent experiments.
# [6] = tested on: Kunming mice; assay: Acute oral toxicity study; type: in vivo; settings: oral, 625, 1250 and 2500 mg/kg, observed 14 days
# Description: A total of 40 Kunming mice (half male and half female) were used to determine the acute toxicity of compound 4c[31]^,[32]. All mice weighting 18–25 g were obtained from Hunan SJA Laboratory Animal Co., Ltd. and randomly divided into corresponding groups. They were maintained under a 12 h light/dark cycle and allowed free access to tap water and standard laboratory chow. The room was maintained at temperature of 23 ± 2 °C with a relative humidity of 55 ± 5%. Prior to dosing, all animals were acclimated to this environment for 5 days. Compound 4c was suspended in 0.5% carboxymethyl cellulose sodium (CMC-Na) salt solution and given via oral administration to the divided experimental groups (0, 625, 1250 and 2500 mg/kg, n = 10 per group). After administration, animals were observed continuously for the first 4 h for any abnormal behavioural changes or deaths, then intermittently for the next 24 h, and occasionally thereafter for 14 days for the onset of any delayed effects. On the 14th day, all mice were sacrificed after being anaesthetized by ether, and the possible toxic damage to liver, heart and kidneys was examined macroscopically.
# [7] = from PAMPA-BBB Pe
# Description: (§2) Afterwards, the acceptor filter plate was carefully placed on the donor plate to make the coated membrane touch both donor solution and acceptor buffer. […] Pe was calculated by the following expression: Pe = {−VdVa/[(Vd + Va)At]}ln (1-drugacceptor/drugequilibrium), where Vd is the volume of donor well, Va is volume in acceptor well, A is the filter area, t is the permeation time, drugacceptor is the absorbance obtained in the acceptor well and drugequilibrium is the theoretical equilibrium absorbance. Each compound was analysed at five wavelengths in four wells at least three independent runs, and the results were expressed as mean ± SD.
# [8] = in vitro; settings: PAMPA
# Description: as §2
# [9] = biological target: T5, hAChE (Homo sapiens, UniProt P22303); assay: Kinetic study of hAChE inhibition (Lineweaver-Burk); type: biochemical; design: Acetylcholinesterase (AChE, from electric eel and human erythrocytes); purchased Sigma-Aldrich (St. Louis, MO, USA)
# T5 sequence (P22303 32-617 isoform P22303-2 limits assumed): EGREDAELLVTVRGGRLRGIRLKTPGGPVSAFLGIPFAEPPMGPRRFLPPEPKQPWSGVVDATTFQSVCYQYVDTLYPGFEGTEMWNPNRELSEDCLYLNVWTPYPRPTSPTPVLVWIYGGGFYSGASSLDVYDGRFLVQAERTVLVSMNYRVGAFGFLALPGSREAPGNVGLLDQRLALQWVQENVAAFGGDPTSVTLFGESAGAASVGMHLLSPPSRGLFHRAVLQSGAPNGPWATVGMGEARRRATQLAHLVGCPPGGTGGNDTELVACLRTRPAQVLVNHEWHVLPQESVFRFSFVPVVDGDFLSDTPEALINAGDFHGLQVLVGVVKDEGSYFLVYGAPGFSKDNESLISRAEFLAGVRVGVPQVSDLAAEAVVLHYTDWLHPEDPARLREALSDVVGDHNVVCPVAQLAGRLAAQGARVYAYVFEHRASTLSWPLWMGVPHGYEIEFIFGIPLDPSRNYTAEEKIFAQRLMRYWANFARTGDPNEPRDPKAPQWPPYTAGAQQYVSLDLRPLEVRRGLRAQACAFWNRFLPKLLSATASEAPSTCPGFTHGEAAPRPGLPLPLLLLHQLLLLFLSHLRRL
# Description: To determine the inhibition mechanism of present compounds, compound 4c was taken for kinetic analysis by Ellman’s method. Three concentrations of 4c were selected for the study, and hAChE was chosen as enzyme source. Following a similar method mentioned above in enzyme inhibition assay, Lineweaver–Burk reciprocal plots were constructed by plotting 1/velocity against 1/[substrate] at varying concentrations of the substrate acetylthiocholine (0.05 – 0.5 mM). All measurements were performed in triplicate and data analysis was performed with Graph Pad Prism 4.03 software (San Diego, CA, USA).
# [10] = biological target: T5, hAChE; assay: In vitro inhibition of hAChE (Ellman method); type: biochemical; design: Acetylcholinesterase (AChE, from electric eel and human erythrocytes); purchased Sigma-Aldrich (St. Louis, MO, USA); host or cells: human erythrocytes
# Description: as §1
smiles,measurement,setting,value
"O=c1ccc2ccc(OCCCCSC(=S)N3CCCCC3)cc2[nH]1 [4c, 4-((2-oxo-1,2-dihydroquinolin-7-yl)oxy)butyl piperidine-1-carbodithioate]",IC50,[1],220 ± 30 nM
same,times more potent than galanthamine on AChE,[1]; ratio of eeAChE IC50 values,7.5 times
same,inhibition at 10 µM,[2],45.4 ± 8.34%
same,inhibition at 100 µM,[3],29 ± 2.06%
same,inhibition at 25 µM,[4],30.7 ± 6.54%
same,effect on cell viability (cytotoxicity),[5],did not show a significant effect on cell viability; also recorded: negligible toxicity; also recorded: no toxicity
same,acute toxicity,[6],no evident toxicity signs; also recorded: no significant acute toxicity; also recorded: well tolerated
same,Prediction of penetration into CNS,[7],CNS+ (CNS + is predicted as high BBB permeation with Pe (×10^6 cm/s) > 3.33)
same,"Papp at 18 h, 25 μg/mL",[8],8.91 ± 2.03 ×10⁻⁶ cm/s
same,type of inhibition,"[9]; Lineweaver-Burk plots, hAChE, 0.1, 0.2, 0.4 μM inhibitor",mixed-type inhibitor; also recorded: mixed-type inhibition
same,Ki,"[9]; replots of slope versus concentration of 4c, hAChE, read-out: competitive inhibition constant Ki",225 nM
same,IC50,[10],160 ± 20 nM
same,fold more potent on hAChE than tacrine,[10]; ratio of hAChE IC50 values,~3 fold
